Experimental data reported in ChEMBL document CHEMBL3507680, “University of Dundee, Gates Library screen for HepG2 cell viability”.

Test: Human HepG2 cell viability assay in 384 well format
Assay type: toxicity, cell-based
Parameters: dose 125 nL, time 70.5 hour; cytotoxicity at 70.5 h: concentration not given beside the values
Conditions: HepG2 cells, read-out: Inhibition

| Structure (SMILES) | cytotoxicity at 70.5 h |
| --- | --- |
| COc1cccc(-c2cnc3n2CCC32CCN(S(C)(=O)=O)CC2)c1 | -2.2% |
| O=C(NC1CC1)c1cnc(-c2noc3cc(N4CCCCC4)ccc23)s1 | -0.737% |
| Cc1nnc([C@H]2C[C@H]3OCC[C@H]3N(S(=O)(=O)C3CC3)C2)o1 | 5.23% |
| Cc1nnc([C@H]2C[C@H]3OCC[C@H]3N(S(=O)(=O)CC(C)C)C2)o1 | -1.29% |
| O=C(C1CC(F)(F)C1)N1CC[C@H]2OCC[C@@]2(COCC2CC2)C1 | -1.76% |
| Cc1ccccc1C(=O)N1C[C@@H]2C[C@@H](C)O[C@@H]2C1 | -8.1% |
| O=C(c1cnc(-c2noc3cc(N4CCCC4)ccc23)s1)N1CCCC1 | -4.44% |
| CCNC(=O)N1CCC2(CC1)CCn1c(-c3cccc(OC)c3)cnc12 | -6.74% |
| Cn1cnc2c1C(C(=O)N1CCCO1)N(C(=O)c1ccccc1)CC2 (stereo not given) | -9.14% |
| O=C(NC1CC1)[C@H]1COC[C@H]2CN(c3ncc(F)cn3)C[C@H]21 | -8.95% |
| CNC(=O)C1CCC2(CCN(c3ncc(C)cn3)CC2)CO1 (stereo not given) | 4.35% |
| CC(C)CN1C[C@H]2C[C@H](C(=O)NCc3cccnc3)[C@@H](C1)O2 | 2.54% |
| CC(C)OC[C@H]1CCC[C@]12CN(S(=O)(=O)c1cccs1)CCO2 | -8.77% |
| COC[C@@H]1CCC[C@]12CN(S(=O)(=O)c1cccs1)CCO2 | -4.17% |
| COCCN1C[C@@H]2OCCN(c3ccnc(N(C)C)n3)[C@@H]2C1 | 0.722% |
| COCC(=O)N1CCCn2c(CN3CCCC3=O)nnc2C1 | -8.38% |
| Cc1cnc(N2CCC3(CCCN(c4ncc(F)cn4)C3)C2)nc1 (stereo not given) | -5.99% |
| Cc1nc(CN2C(=O)COC3(CCN(C(N)=O)CC3)C2C)cs1 (stereo not given) | 3.95% |
| COCC1CN(Cc2cccc(C#N)c2)Cc2nccn2C1 (stereo not given) | 1.24% |
| COc1cccc(CC(=O)N2Cc3nccn3CC(CN(C)C)C2)c1 (stereo not given) | -0.154% |
| CCOCC(=O)N1CCCn2c(CN3CCOCC3)nnc2C1 | 2.86% |
| CNC(=O)N1CCC2(CC1)CN(C(C)C)Cc1cc(F)ccc12 | -2.71% |
| O=C(O)c1c(NC2CCC2)ncc2c1CCN(C1CCOC1)C2 (stereo not given) | -6.13% |
| Cc1ccc(N2CCN(CC3CC3)C3(CCN(C(C)C)CC3)C2=O)cn1 | -5.52% |
| Cc1ccc(CN2CCc3[nH]nc(C(=O)N4CCNC(=O)C4)c3C2)s1 | 3.82% |
| Cn1ccnc1NC[C@@H]1CCC[C@@H]2CN(Cc3nccs3)C[C@@H]21 | -0.236% |
| CC(C)n1c(C(=O)N2CCCC2)nc2c1CCN(C)C2 | -5.23% |
| CN1CCc2c(CNc3ncccn3)n[nH]c2C1 | 49.1% |

| Structure (SMILES) | cytotoxicity at 70.5 h |
| --- | --- |
| CN(C)C[C@H]1C[C@@H]2CN(C(=O)c3ccno3)C[C@@H]2O1 | -16.7% |
| Cn1nc(Cn2cccc2)c2c1CN(Cc1ccoc1)C2 | 21.4% |
| O=C(c1ccccc1)N1CCO[C@@H]2CN(c3cnccn3)C[C@@H]2C1 | -12.3% |
| CC(C)N1CCC2(CCCN(C(=O)c3cncn3C)C2)CC1 | -12% |
| Cc1nc(CN2C(=O)CC3(CCN(C(N)=O)CC3)c3ccccc32)cs1 | -2.82% |
| c1cncc(C2CC3(CCN(c4cnccn4)CC3)c3ccccc32)c1 (stereo not given) | -1.15% |
| c1cnc(N2CC3(CCN(CC4CCOC4)CC3)c3ccccc32)nc1 (stereo not given) | 0.807% |
| c1cnc(N2CC3(CCN(C4CCOCC4)CC3)c3ccccc32)nc1 | -0.647% |
| O=C([C@H]1COC[C@H]2CN(c3ncc(F)cn3)C[C@H]21)N1CCOCC1 | -7.81% |
| CCC(=O)N1CCC2(CCC(N3CCCC3)c3ccccc32)CC1 (stereo not given) | -6.38% |
| Cc1cnc(N2C[C@@H]3[C@@H](C2)OCC(=O)N3CCN(C)C)nc1 | -3.72% |
| Cc1nnc([C@]23COC[C@H]2CN(Cc2cccs2)C3)o1 | 27.6% |
| O=C(c1ccnnc1)N1C[C@@H]2C[C@@H](c3nc(C4CC4)cs3)O[C@@H]2C1 | -3.56% |
| CN(C)Cc1cn2c(n1)CN(C(=O)Cc1ccsc1)CC2 | -0.503% |
| CN(C)CC1CN(C(=O)CCc2ccccc2)Cc2nccn2C1 (stereo not given) | 1.84% |
| Cc1nnc([C@@H]2CC[C@@H]3[C@@H](CCN3Cc3ccccn3)O2)o1 | 10.5% |
| CN(C)CC(=O)N1CCC2(CCc3ccc(-c4ccncc4)cc32)CC1 | 3.66% |
| Cn1nc(Cn2ccnc2)c2c1CN(Cc1ccoc1)C2 | 24.7% |
| Cn1nc(CN2CCCCC2)c2c1CN(Cc1ccoc1)C2 | -7.22% |
| Cc1cc(C(=O)N2CCCC3(COCCN(c4ncccn4)C3)C2)[nH]n1 (stereo not given) | -6.04% |
| O[C@@H]1CCN(CC2CCOC2)[C@H]1Cc1cccnc1 (stereo not given in full) | -12.1% |
| CS(=O)(=O)N[C@@H]1CCN(Cc2nccs2)[C@H]1Cc1ccncc1 | -13.1% |
| CC(C)CNC(=O)[C@H]1C[C@@H]2CN(Cc3cccnc3)C[C@H]1O2 | -2.17% |
| c1cnc(N2CCCC3(CCN(c4ncccn4)C3)C2)nc1 (stereo not given) | 26.5% |
| CN(C)CC1CN(Cc2cccc(C#N)c2)Cc2nccn2C1 (stereo not given) | -6.48% |
| CN(C)CCOCC1CN(Cc2cccc(F)c2)Cc2nccn2C1 (stereo not given) | -4.81% |
| CCN(CC)CC1CN(Cc2cccc(C#N)c2)Cc2nccn2C1 (stereo not given) | 5.06% |
